Results on 24 molecules are retold here after patent publication US8829200B2, “Benzimidazole inhibitors of leukotriene production” (Boehringer Ingelheim International GmbH, priority 2010, dated 2014).

Assay [1] deals with recombinant human FLAP protein (Homo sapiens (Human), UniProt P20292). Briefly: FLAP binding assay (Scintillation Proximity Assay). The following applies: displacement of [125I]L-691,831, membranes of sf9 cells expressing human FLAP; read-out: SPA IC50. As to the method: Compounds are assessed for the ability to bind to FLAP in a binding assay that measures compound-specific displacement of an iodinated (^125I) FLAP inhibitor via a Scintillation Proximity Assay format (adapted from S. Charleson et al., Mol. Pharmacol., 1992, 41, 873-879).
Cell pellets produced from sf9 insect cells expressing recombinant human FLAP protein are resuspended in buffer A [15 mM Tris-HCl (pH 7.5), 2 mM MgCl2, 0.3 mM EDTA, 1 mM PMSF]. The cells are lysed with a Dounce homogenizer and the material is centrifuged at 10,000×g for 10 minutes. The supernatant is then collected and centrifuged at 100,000×g for 60 minutes. To prepare membrane protein for an assay, an aliquot of the 100,000×g pellet is resuspended in 1 ml of buffer A, Dounce homogenized, and finally subjected to polytron mixing (30 seconds). Membrane protein (25 μl, 5 μg) is mixed with WGA SPA beads (Amersham) and stirred for 1 h. To an assay plate (Perkin Elmer FlexiPlate) is added 25 μl of test compound prepared in Binding buffer [100 mM Tris (pH 7.5), 140 mM NaCl, 5% glycerol, 2 mM EDTA, 0.5 mM TCEP, 0.05% Tween 20], 25 μl of [^125I]L-691,831 (an iodinated analog of MK-591, Charleson et al. Mol. Pharmacol., 41, 873-879, 1992) and finally 50 μl of the bead/protein mixture. (final concentrations: beads, 200 μg/well; protein, 5 μg/well; [^125I] probe, 0.08 nM/well (17 nCi/well). The plates are shaken for 2 h before reading on a Microbeta plate reader. Non-specific binding is determined by the addition of 10 μM cold L-691,831 compound.

Assay [2] has as its system synthesis of LTB4 in human whole blood. As to the kind of experiment: human whole blood LTB4 production inhibition assay. The format is cell-based. The following applies: heparinized human whole blood, calcimycin-stimulated, plasma LTB4; read-out: hWB IC50. As to the method:
Compounds are additionally tested in a human whole blood assay to determine their ability to inhibit the synthesis of LTB4 in a cellular system. Compounds are combined with heparinized human whole blood and incubated for 15 minutes at 37° C. Calcimycin ([…], prepared in phosphate-buffered saline, pH 7.4) is then added and the mixture is incubated for another 30 minutes at 37° C. The samples are centrifuged for 5 min at low speed (1500×g) and the plasma layer is removed. Plasma LTB4 concentrations are then measured using an antibody-based homogenous time-resolved fluorescence method (CisBio, Bedford, Mass.).

Each structure is given as a SMILES string.

Chain of recombinant human FLAP protein (P20292 whole entry): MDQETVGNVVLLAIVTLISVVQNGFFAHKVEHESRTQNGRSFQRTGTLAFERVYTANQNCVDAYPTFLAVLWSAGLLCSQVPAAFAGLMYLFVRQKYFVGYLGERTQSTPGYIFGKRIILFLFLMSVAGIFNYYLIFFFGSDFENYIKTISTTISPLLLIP

One may read the IC50 as the concentration at which inhibition is half-maximal. Consider `CC(C)(C)n1c(-c2ccccc2C(=O)NC2CC2)nc2cc(-c3cnc(N)nc3)ccc21` [Example 2, 2-[5-(2-Amino-pyrimidin-5-yl)-1-tert-butyl-1H-benzoimidazol-2-yl]-N-cyclopropyl-benzamide], for which the IC50 in assay [1] came out at 25.2 nM; in assay [2], 2190 nM.
As to `CC(C)(C)n1c(-c2ccccc2C(=O)O)nc2cc(-c3cnc(N)nc3)ccc21` [Example 1, 2-[5-(2-Amino-pyrimidin-5-yl)-1-tert-butyl-1H-benzoimidazol-2-yl]-benzoic acid], in assay [1], the IC50 was 1400 nM.
Consider `CNC(=O)c1ccc(F)cc1-c1nc2cc(-c3cnc(N)nc3)ccc2n1C(C)(C)C` [Example 6, 2-[5-(2-Amino-pyrimidin-5-yl)-1-tert-butyl-1H-benzoimidazol-2-yl]-4-fluoro-N-methyl-benzamide], for which the IC50 was 5.07 nM in assay [1] and 130 nM in assay [2].
Regarding `CN(C)C(=O)c1ccccc1-c1nc2cc(-c3cnc(N)nc3)ccc2n1C(C)(C)C` [Example 29, 2-[5-(2-Amino-pyrimidin-5-yl)-1-tert-butyl-1H-benzoimidazol-2-yl]-N,N-dimethyl-benzamide], the IC50 in assay [1] was found to be 200 nM; in assay [2], 3050 nM.
In the case of `CC(C)NC(=O)c1ccccc1-c1nc2cc(-c3cnc(N)nc3)ccc2n1C(C)(C)C` [Example 26, 2-[5-(2-Amino-pyrimidin-5-yl)-1-tert-butyl-1H-benzoimidazol-2-yl]-N-isopropyl-benzamide], the concentration for half-maximal inhibition (IC50) in assay [1] was 34.6 nM; in assay [2] it was 4900 nM.
On to `CNC(=O)c1cc(F)ccc1-c1nc2cc(-c3cnc(N)nc3)ccc2n1C(C)(C)C` [Example 33, 2-[5-(2-Amino-pyrimidin-5-yl)-1-tert-butyl-1H-benzoimidazol-2-yl]-5-fluoro-N-methyl-benzamide], for which the half-inhibitory concentration (IC50) in assay [1] was 20 nM; in assay [2], 3080 nM.
In the same order, the values of `CC(C)(C)n1c(-c2ccccc2C(=O)NC2CCNCC2)nc2cc(-c3cnc(N)nc3)ccc21` [Example 25, 2-[5-(2-Amino-pyrimidin-5-yl)-1-tert-butyl-1H-benzoimidazol-2-yl]-N-piperidin-4-yl-benzamide] are 460 nM and over 5000 nM.
For `CC(C)(C)n1c(-c2cccc(C(=O)O)c2)nc2cc(-c3cnc(N)nc3)ccc21` [Example 16, 3-[5-(2-Amino-pyrimidin-5-yl)-1-tert-butyl-1H-benzoimidazol-2-yl]-benzoic acid], the IC50 in assay [1] was found to be 645 nM.
As for `COC(=O)c1ccccc1-c1nc2cc(-c3cnc(N)nc3)ccc2n1C(C)(C)C` [Example 17, 2-[5-(2-Amino-pyrimidin-5-yl)-1-tert-butyl-1H-benzoimidazol-2-yl]-benzoic acid methyl ester], the IC50 in assay [1] was 22 nM.
For the molecule `CN(C)CCNC(=O)c1ccccc1-c1nc2cc(-c3cnc(N)nc3)ccc2n1C(C)(C)C` [Example 24, 2-[5-(2-Amino-pyrimidin-5-yl)-1-tert-butyl-1H-benzoimidazol-2-yl]-N-(2-dimethylamino-ethyl)-benzamide], the IC50 is 140 nM in assay [1] and 2870 nM in assay [2].
On to `CCNC(=O)c1ccc(F)cc1-c1nc2cc(-c3cnc(N)nc3)ccc2n1C(C)(C)C` [Example 30, 2-[5-(2-Amino-pyrimidin-5-yl)-1-tert-butyl-1H-benzoimidazol-2-yl]-N-ethyl-4-fluoro-benzamide], for which the half-inhibitory concentration (IC50) in assay [2] was determined as 413 nM.
For the molecule `COc1cncc(-c2ccc3c(c2)nc(-c2cccc(C(N)=O)c2)n3C(C)(C)C)c1` [Example 35, 3-[1-tert-Butyl-5-(5-methoxy-pyridin-3-yl)-1H-benzoimidazol-2-yl]-benzamide], the IC50 in assay [1] is 4700 nM.
Regarding `CNC(=O)c1cc(F)c(F)cc1-c1nc2cc(-c3cnc(N)nc3)ccc2n1C(C)(C)C` [Example 5, 2-[5-(2-Amino-pyrimidin-5-yl)-1-tert-butyl-1H-benzoimidazol-2-yl]-4,5-difluoro-N-methyl-benzamide], in assay [2], the IC50 worked out at 357 nM.
Turning to `CC(C)(C)NC(=O)c1ccccc1-c1nc2cc(-c3cnc(N)nc3)ccc2n1C(C)(C)C` [Example 21, 2-[5-(2-Amino-pyrimidin-5-yl)-1-tert-butyl-1H-benzoimidazol-2-yl]-N-tert-butyl-benzamide], the IC50 in assay [1] is 14.7 nM; in assay [2], 3290 nM.
Take `CN(C)C(=O)c1ccc(F)c(-c2nc3cc(-c4cnc(N)nc4)ccc3n2C(C)(C)C)c1` [Example 12, 3-[5-(2-Amino-pyrimidin-5-yl)-1-tert-butyl-1H-benzoimidazol-2-yl]-4-fluoro-N,N-dimethyl-benzamide]: the figures for the concentration for half-maximal inhibition (IC50) in assay [1] and in assay [2] were 610 nM and over 5000 nM, respectively.
With `CNC(=O)c1ccccc1-c1nc2cc(-c3cnc(N)nc3)ccc2n1C(C)(C)C` [Example 4, 2-[5-(2-Amino-pyrimidin-5-yl)-1-tert-butyl-1H-benzoimidazol-2-yl]-N-methyl-benzamide], the IC50 was 11.4 nM in assay [1] and 433 nM in assay [2].
On to `CC(C)(C)n1c(-c2ccccc2C(N)=O)nc2cc(-c3cnc(N)nc3)ccc21` [Example 14, 2-[5-(2-Amino-pyrimidin-5-yl)-1-tert-butyl-1H-benzoimidazol-2-yl]-benzamide], for which the IC50 in assay [2] worked out at 1150 nM.
`CC(C)(C)n1c(-c2cc(C#N)ccc2C(=O)NS(C)(=O)=O)nc2cc(-c3cnc(N)nc3)ccc21` [Example 11, N-{2-[5-(2-Amino-pyrimidin-5-yl)-1-tert-butyl-1H-benzoimidazol-2-yl]-4-cyano-benzoyl}-methanesulfonamide]: in assay [1], the IC50 was determined as 55.6 nM.
With `CC(C)(C)n1c(-c2ccccc2C(=O)NCC2CCCO2)nc2cc(-c3cnc(N)nc3)ccc21` (stereo not drawn) [Example 18, 2-[5-(2-Amino-pyrimidin-5-yl)-1-tert-butyl-1H-benzoimidazol-2-yl]-N-(tetrahydro-furan-2-ylmethyl)-benzamide], the half-maximal inhibitory concentration (IC50) worked out at 18.8 nM in assay [1] and 2440 nM in assay [2].
For the molecule `COCCNC(=O)c1ccccc1-c1nc2cc(-c3cnc(N)nc3)ccc2n1C(C)(C)C` [Example 19, 2-[5-(2-Amino-pyrimidin-5-yl)-1-tert-butyl-1H-benzoimidazol-2-yl]-N-(2-methoxy-ethyl)-benzamide], the figures for the IC50 in assay [1] and in assay [2] were 43.8 nM and 2870 nM, respectively.
On to `CN(C(=O)c1ccccc1-c1nc2cc(-c3cnc(N)nc3)ccc2n1C(C)(C)C)c1ccccn1` [Example 27, 2-[5-(2-Amino-pyrimidin-5-yl)-1-tert-butyl-1H-benzoimidazol-2-yl]-N-methyl-N-pyridin-2-yl-benzamide], for which, in assay [1], the IC50 was 180 nM.
`CC(C)(C)n1c(-c2cc(F)ccc2C(=O)Nc2cccnc2)nc2cc(-c3cnc(N)nc3)ccc21` [Example 31, 2-[5-(2-Amino-pyrimidin-5-yl)-1-tert-butyl-1H-benzoimidazol-2-yl]-4-fluoro-N-pyridin-3-yl-benzamide]: the 50% inhibitory concentration (IC50) in assay [2] came to 1950 nM.
For the molecule `CC(C)(C)n1c(-c2cc(F)ccc2C(=O)NCc2cccnc2)nc2cc(-c3cnc(N)nc3)ccc21` [Example 32, 2-[5-(2-Amino-pyrimidin-5-yl)-1-tert-butyl-1H-benzoimidazol-2-yl]-4-fluoro-N-pyridin-3-ylmethyl-benzamide], in assay [2], the IC50 was found to be 939 nM.
Regarding `CC(C)(C)n1c(-c2cc(C#N)ccc2C(=O)NC#N)nc2cc(-c3cnc(N)nc3)ccc21` [Example 10, 2-[5-(2-Amino-pyrimidin-5-yl)-1-tert-butyl-1H-benzoimidazol-2-yl]-4-cyano-N-cyano-benzamide], the IC50 in assay [1] stood at 6.09 nM.
